Assay results published in patent publication US20070225334A1, “Methods for treating cognitive and other disorders” (Wyeth, priority 2006, published 2007).

Columns and labels:
5-HT2C receptor [1] = target: T1, 5-HT2C receptor (Homo sapiens, UniProt P28335); experiment: 5-HT2C receptor affinity; format: binding
T1 sequence (P28335 33-458): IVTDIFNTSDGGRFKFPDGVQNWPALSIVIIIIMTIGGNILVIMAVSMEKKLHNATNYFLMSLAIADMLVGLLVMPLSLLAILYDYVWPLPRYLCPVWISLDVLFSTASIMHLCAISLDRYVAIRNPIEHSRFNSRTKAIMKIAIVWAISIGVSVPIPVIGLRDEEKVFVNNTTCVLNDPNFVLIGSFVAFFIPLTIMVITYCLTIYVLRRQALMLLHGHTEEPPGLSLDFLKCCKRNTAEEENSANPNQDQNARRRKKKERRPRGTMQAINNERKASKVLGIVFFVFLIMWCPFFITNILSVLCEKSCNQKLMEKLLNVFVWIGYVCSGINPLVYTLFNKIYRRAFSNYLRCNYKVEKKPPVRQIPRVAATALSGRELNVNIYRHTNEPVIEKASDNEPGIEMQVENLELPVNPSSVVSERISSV

5-HT2C receptor [2] = target: T1, 5-HT2C receptor; experiment: 5-HT2C receptor agonist function; format: biochemical
[3] = test system: schedule-induced polydipsia; experiment: Schedule-induced polydipsia model of obsessive-compulsive disorder (adjunctive drinking); format: in vivo, Sprague-Dawley rat; details: for reduction in adjunctive drinking behavior: relative to vehicle
Text: In this model, a food pellet is delivered once per minute for a two-hour period. A water bottle is available in the test chamber. […] This excessive manifestation of a normal behavior (drinking) provides face validity to the model. […] Most importantly, clinically effective drugs for the treatment of obsessive-compulsive disorder decrease adjunctive drinking.
Male Sprague-Dawley rats weighing 300-400 grams were individually housed in an AALAC-accredited facility that was maintained on a 12-h light dark cycle (lights on at 0600 h) with freely available water. All in vivo studies were performed in accordance to the Guide for the Care and Use of Laboratory Animals as adopted and promulgated by the National Institutes of Health (Pub. 85-23, 1985). Rats were maintained at approximately 85% of their free-feeding body weights by food presented during the session and by post-session feeding.
Procedure Experimental sessions were conducted in a standard operant conditioning chamber placed inside a ventilated sound-attenuating shell that was equipped with white noise to mask extraneous sounds (Med Associates, Georgia, Vt.). A food trough was on the front panel of the chamber and a water bottle was mounted to the side panel. Experimental sessions were 120 minutes in duration and were conducted five days per week (Monday through Friday). Test sessions occurred generally on Tuesdays and Fridays, with the remaining days serving as control days. For each session, one food pellet (Bioserv, 45 mg precision dustless pellet) was dispensed into the food trough each minute for the duration of the session, for a total of 120 pellets being delivered. This schedule of food presentation elicits an abnormal adjunctive drinking behavior in rats such that they consume and exaggerated volume of water, approximately 5-10 fold larger than under normal conditions. Compound 1 or vehicle was administered immediately prior to the start of the experimental session. Each dose of Compound 1 was tested on a separate day, with the appropriate control sessions being conducted prior to each test. At the end of the test session, the volume of water and the number of food pellets that each rat consumed were measured.
(§1) Water consumption was calculated and expressed as percent (%) of vehicle control intake. Results were analyzed using a one-way ANOVA with least significant difference (LSD) post-hoc test. […] Where appropriate, ED50 values (dose that decreases adjunctive water intake to 50% of vehicle values) were calculated using a logistic dose response analysis.

[4] = test system: normal eating and drinking behavior; experiment: Modified procedure for normal feeding and drinking behavior (120 pellets at session start); format: in vivo, Sprague-Dawley rat; details: 1 mg/kg
Procedure: In order to determine if Compound 1 would affect normal eating and drinking behavior, Compound 1 or vehicle was tested under modified conditions. Under these modified conditions, 120 food pellets were placed into the food trough at the beginning of the session and no further food pellets were dispensed. At the end of the test session, the volume of water and the number of food pellets consumed by each rat were measured as described earlier.
as §1

[5] = test system: acetylcholine in medial prefrontal cortex; experiment: In vivo microdialysis, acetylcholine in medial prefrontal cortex; design: species or system Sprague-Dawley rat; details: 1.7 mg/kg s.c.
Procedure: Animals: Adult male Sprague-Dawley rats (Charles River, Wilmington, Mass.) weighing 280-350 g at the time of surgery were used for all microdialysis experiments. Adult male Long-Evans rats (Charles River, Wilmington, Mass.) weighing 180-220 g were used for NOR studies. Rats were housed individually for recognition memory studies. All animals had free access to food and water and were group housed in the AAALAC-accredited facility that was maintained on a 12 h light dark cycle (lights on at 0600 h) for at least 1 week prior to surgery or behavioral testing. All in vivo studies were performed in accordance to the ‘Guide for the Care and Use of Laboratory Animals’ as adopted and promulgated by the National Institutes of Health (Pub. 85-23, 1985). […]
Analysis of Acetylcholine Dialysate levels of acetylcholine were determined using LC/MS/MS. […]
Acetylcholine data were quantified using peak area against an internal standard and acquired using Masslynx software (Micromass, Beverly, Mass., USA). The mean of the concentration of baseline samples was calculated and denoted as 0%. All sample values were expressed as a percent change from this pre-injection mean baseline value (% change from baseline). Neurochemical data, excluding pre-injection values, were analyzed by a two-way analysis of variance (ANOVA) with repeated measures (time). […]

[6] = test system: extracellular glutamate levels in the rat mPFC; experiment: In vivo microdialysis, extracellular glutamate in mPFC; design: species or system Sprague-Dawley rat; details: 1.7 mg/kg s.c., acute, F(1,15)=4.76, P=0.0454 vs vehicle
Procedure: Animals: Adult male Sprague-Dawley rats (Charles River, Wilmington, Mass.) weighing 280-350 g at the time of surgery were used for all microdialysis experiments. Adult male Long-Evans rats (Charles River, Wilmington, Mass.) weighing 180-220 g were used for NOR studies. Rats were housed individually for recognition memory studies. All animals had free access to food and water and were group housed in the AAALAC-accredited facility that was maintained on a 12 h light dark cycle (lights on at 0600 h) for at least 1 week prior to surgery or behavioral testing. All in vivo studies were performed in accordance to the ‘Guide for the Care and Use of Laboratory Animals’ as adopted and promulgated by the National Institutes of Health (Pub. 85-23, 1985).
Stereotaxic Surgery Following induction of anesthesia with 3% halothane (Fluothane; Zeneca, Cheshire, UK), animals were secured in a stereotaxic frame with ear and incisor bars (David Kopf, Tujunga, Calif.). Anesthesia was maintained by continuous administration of halothane (1-2%) while a microdialysis guide cannula (CMA/12, CMA Microdialysis, Stockholm, Sweden) was implanted above the dorsal hippocampus (AP: −4.3 mm ML: −2.6 mm DV: −2.1 mm) or the medial prefrontal cortex (AP: 3.2 mm ML: −0.6 mm DV: −3.8 mm). […]
Dialysate (10 μL) was collected and analyzed for extracellular glutamate concentrations. […]

Structure (SMILES): NC[C@H]1Cc2cc(F)cc(-c3c(Cl)cccc3Cl)c2O1 (stereo in doubt) [Compound 1, (7-(2,6-dichlorophenyl)-5-fluoro-2,3-dihydrobenzofuran-2-yl)methanamine]
- Ki (5-HT2C receptor [1]): 370 pM
- EC50 (5-HT2C receptor [2]): 400 pM
- agonist character at the 5-HT2C receptor (5-HT2C receptor [2]): potent full agonist
- reduction in adjunctive drinking behavior ([3]; 0.3 mg/kg i.p., p=0.003): 45%
- rats not eating all food pellets presented ([3]; 1 mg/kg i.p., schedule-induced polydipsia session): one of the six rats did not eat all of the food pellets presented
- reduction in adjunctive drinking behavior ([3]; 1 mg/kg i.p., p<0.0001): 81%
- effect on adjunctive drinking behavior ([3]; 0.1-1 mg/kg, i.p., acute, F(3,20)=16.91, p<0.0001): dose-dependent decrease
- ED50 ([3]; Rattus norvegicus, ip, 95% CI: 0.22-0.57 mg/kg, read-out: ED50 (dose that decreases adjunctive water intake to 50% of vehicle values)): 0.36 mg/kg
- decrease in water consumption relative to vehicle controls ([4]; modified procedure (normal drinking)): 26%
- rats failing to eat all food pellets presented ([4]; modified procedure (normal feeding)): two of the six rats tested failed to eat all of the food pellets presented
- maximal increase in acetylcholine with respect to baseline [5]: 48%
- extracellular glutamate levels [6]: 132%
